Test results taken from the OligoGym collection.
Values joined by “and” are separate entries in the source; they are usually repeats but may differ in a detail not shown here. Identical values can stand only once. After the bases stand the sugars from the 5' end (letter, count) and the backbone: PS all phosphorothioate, else s phosphorothioate and o phosphodiester by linkage. Methylation of C is not given here. e = 2'-O-(2-methoxyethyl) (MOE); k = constrained ethyl (cEt); d = 2'-deoxy (DNA)

Molecular target: IRF4
Conditions: ASO

Sequence	target mRNA inhibition (SK-MEL-28, 4 µM)	further results
CACATTTGAGAGCTAC (sugars k3 d10 k3, PS)	74%	
CACCAAGGTCCAGAGT (sugars k3 d10 k3, PS)	20%	
CACCAGGTTAAACAGG (sugars k3 d10 k3, PS)	-8%	
CACCATTCAGACAGAT (sugars k3 d10 k3, PS)	-67%	
CACCCCTTCTTGTGGA (sugars k3 d10 k3, PS)	40%	
CACCGAACACACCAGG (sugars k3 d10 k3, PS)	20%	
CACGAAGGGCAGTGCC (sugars k3 d10 k3, PS)	17%	
CACGAGGAAGCATAGA (sugars k3 d10 k3, PS)	56%	
CACGCAATGGCAAAAG (sugars k3 d10 k3, PS)	19%	
CACGGGAATTTCCATT (sugars k3 d10 k3, PS)	71%	
CACTAAGTGGGCTCTG (sugars k3 d10 k3, PS)	41%	
CACTACCTGCAGCCAA (sugars k3 d10 k3, PS)	31%	
CACTATTAAACAGCAC (sugars k3 d10 k3, PS)	19%	
CACTATTCGAGAGAAA (sugars k3 d10 k3, PS)		target mRNA inhibition (MM.1R, 1 µM): 30%
CACTCAGCAAGTGTCT (sugars k3 d10 k3, PS)	50%	
CACTGAGGCCTTAATG (sugars k3 d10 k3, PS)	34%	
CACTGCCGTGATCTGA (sugars k3 d10 k3, PS)		target mRNA inhibition (MM.1R, 1 µM): 9%
CACTGGCATCGAGACG (sugars k3 d10 k3, PS)	61%	
CACTGTTAAAGCAGCA (sugars k3 d10 k3, PS)	81%	
CAGAAAATATGTAACG (sugars k3 d10 k3, PS)	22%	
CAGAAGTACGAGCACA (sugars k3 d10 k3, PS)	47%	
CAGATGGCATGCGAAT (sugars k3 d10 k3, PS)	35%	

Sequence	target mRNA inhibition (SK-MEL-28, 4 µM)	further results
CAGATTAATAGTAAGT (sugars k3 d10 k3, PS)		target mRNA inhibition (MM.1R, 1 µM): -12%
CAGATTTACACCGTTG (sugars k3 d10 k3, PS)		target mRNA inhibition (MM.1R, 1 µM): 15%
CAGCACCGTGTGGAAA (sugars k3 d10 k3, PS)	51%	
CAGCTCACCGCGCTCA (sugars k3 d10 k3, PS)	42%	
CAGGACCCGGCTCCCG (sugars k3 d10 k3, PS)	14%	
CAGGTAAGGGCCCCGT (sugars k3 d10 k3, PS)	70%	
CAGGTTTCATTTCATT (sugars k3 d10 k3, PS)	60%	target mRNA inhibition (MM.1R, 0.074 µM): -1%; target mRNA inhibition (MM.1R, 0.222 µM): 13%; target mRNA inhibition (MM.1R, 0.666 µM): 10%; target mRNA inhibition (MM.1R, 2 µM): 39%; target mRNA inhibition (SK-MEL-28, 0.185 µM): 15%; target mRNA inhibition (SK-MEL-28, 5 µM): 71%; target mRNA inhibition (SK-MEL-28, 15 µM): 91%
CAGTCAAAGATTCATT (sugars k3 d10 k3, PS)	40%	
CAGTGACTTGCATCCA (sugars kkdddddddddkekek, PS)		target mRNA inhibition (MM.1R, 1 µM): 26%
CAGTGATGTCAGGTTT (sugars e1 k2 d9 k2 e2, PS)		target mRNA inhibition (MM.1R, 1 µM): 20%
CAGTGATGTCAGGTTT (sugars k3 d9 k3 e1, PS)		target mRNA inhibition (MM.1R, 1 µM): 49%
CAGTGTGATTAATTCT (sugars k3 d10 k3, PS)		target mRNA inhibition (MM.1R, 1 µM): 17%
CAGTTGTAAATGAGTC (sugars e1 k2 d9 k2 e2, PS)		target mRNA inhibition (MM.1R, 0.074 µM): 12%; target mRNA inhibition (MM.1R, 0.222 µM): 34%; target mRNA inhibition (MM.1R, 0.666 µM): 51%; target mRNA inhibition (MM.1R, 1 µM): 55%; target mRNA inhibition (MM.1R, 2 µM): 70%
CAGTTTGTGAAGCATC (sugars k3 d10 k3, PS)	78%	
CATAAAGGACCCCGCC (sugars k3 d10 k3, PS)		target mRNA inhibition (MM.1R, 1 µM): -5%
CATAACTCAGGCAAGG (sugars k3 d10 k3, PS)	36%	
CATCAATGATGGCAGT (sugars k3 d10 k3, PS)	50%	
CATCACTGCAGTTCAC (sugars k3 d10 k3, PS)	47%	
CATCCAAGAGTAGCGC (sugars k3 d10 k3, PS)	73% and 63%	
CATCGAACTCCTGAGT (sugars k3 d10 k3, PS)	31%	
CATGGCAGTGGAGCTC (sugars k3 d10 k3, PS)	87% and 82%	
CATTACGAGAGGGTCT (sugars k3 d10 k3, PS)	44%	

Sequence	target mRNA inhibition (SK-MEL-28, 4 µM)	further results
CATTATCTACCTCAGT (sugars k3 d10 k3, PS)	35%	
CATTCGAGGTGATTCT (sugars k3 d10 k3, PS)		target mRNA inhibition (MM.1R, 1 µM): 11%
CATTCTAACAGATAAC (sugars k3 d10 k3, PS)	-2%	
CATTGCTAGATTCTCC (sugars k3 d10 k3, PS)		target mRNA inhibition (MM.1R, 1 µM): 18% and 30%
CATTGGTACGGGATTT (sugars k3 d10 k3, PS)	16%	
CATTTTATCATCCGAA (sugars k3 d10 k3, PS)	55%	
CCACAATCAGCAAGTC (sugars k3 d10 k3, PS)		target mRNA inhibition (MM.1R, 1 µM): 0%
CCACAGTTGAACCCAT (sugars k3 d10 k3, PS)	36%	
CCACATAACTCAGGCA (sugars k3 d10 k3, PS)	70%	
CCACATGTCCCGTGGG (sugars k3 d10 k3, PS)		target mRNA inhibition (MM.1R, 1 µM): -28%
CCACCCTCCGTCTCAC (sugars k3 d10 k3, PS)	33%	
CCACCTCCATTCTAAC (sugars k3 d10 k3, PS)	-15%	
CCACGAAGATTCAAAA (sugars k3 d10 k3, PS)		target mRNA inhibition (MM.1R, 1 µM): -7%
CCACGAGGCACCGCAC (sugars k3 d10 k3, PS)	-19%	
CCACTATTCGAGAGAA (sugars k3 d10 k3, PS)	57%	
CCAGAGCACACAGACG (sugars k3 d10 k3, PS)	36%	
CCAGAGCAGTAAACGC (sugars k3 d10 k3, PS)		target mRNA inhibition (MM.1R, 1 µM): 11%
CCAGAGGACCACGCCC (sugars k3 d10 k3, PS)	28%	
CCAGTACAGTCCACTC (sugars k3 d10 k3, PS)		target mRNA inhibition (MM.1R, 1 µM): -6%
CCATTACTTAGACATT (sugars k3 d10 k3, PS)	64%	
CCATTAGAAAAGCAGG (sugars k3 d10 k3, PS)	80% and 78%	
CCATTGGAGGAGGGTT (sugars k3 d10 k3, PS)	32%	

Sequence	target mRNA inhibition (SK-MEL-28, 4 µM)	further results
CCCACATAACTCAGGC (sugars k3 d10 k3, PS)		target mRNA inhibition (MM.1R, 1 µM): -16%
CCCAGTCTACTGCTGT (sugars k3 d10 k3, PS)	66%	
CCCATCTGTCTCAGTT (sugars k3 d10 k3, PS)	66%	
CCCCAAAGAGAGTGGG (sugars k3 d10 k3, PS)	-11%	
CCCCAAGGCTACAGGC (sugars k3 d10 k3, PS)	25%	
CCCGAATAGGACCCCT (sugars k3 d10 k3, PS)	40%	
CCCGAGGCCGGAGACC (sugars k3 d10 k3, PS)	6%	
CCCTTCAGCCACGAGG (sugars k3 d10 k3, PS)	8%	
CCCTTCCCCGCGACTC (sugars k3 d10 k3, PS)	19%	
CCGAAAAGACTGGAGT (sugars k3 d10 k3, PS)	57%	
CCGAACTCTCCGCCTC (sugars k3 d10 k3, PS)	36%	
CCGCAATTCTCCTCAA (sugars k3 d10 k3, PS)	20%	
CCGCAGCATCGAACTC (sugars k3 d10 k3, PS)	42%	
CCGGAGACCTTGAAGA (sugars k3 d10 k3, PS)	9%	
CCGGAGGAAGTCCCCT (sugars k3 d10 k3, PS)		target mRNA inhibition (MM.1R, 1 µM): 0%
CCGGGTGTGGCTGATC (sugars k3 d10 k3, PS)	16%	
CCGTAGTCAGCTCCAT (sugars k3 d10 k3, PS)	73%	
CCGTGAAACAGCAGTT (sugars k3 d10 k3, PS)	56%	
CCTAAATCACCCTGGT (sugars k3 d10 k3, PS)	27%	
CCTACATACATTAATA (sugars k3 d10 k3, PS)	-7%	
CCTAGATAACATGAGA (sugars k3 d10 k3, PS)	26%	
CCTAGGACTAAGGACA (sugars k3 d10 k3, PS)		target mRNA inhibition (MM.1R, 1 µM): -3%

Sequence	target mRNA inhibition (SK-MEL-28, 4 µM)	further results
CCTCAAAGCTGTGAAA (sugars k3 d10 k3, PS)	20%	
CCTCAACCGCTGAACT (sugars k3 d10 k3, PS)	30%	
CCTCAGACTGTGCTGC (sugars k3 d10 k3, PS)	30%	
CCTCAGGGAATCCCTT (sugars k3 d10 k3, PS)	30%	
CCTCAGTTTGTGAAGC (sugars kdddddddddkekeke, PS)		target mRNA inhibition (MM.1R, 1 µM): 11%
CCTCAGTTTGTGAAGC (sugars kkdddddddddkekek, PS)		target mRNA inhibition (MM.1R, 1 µM): 15%
CCTCCTTTAGTGTCGC (sugars k3 d10 k3, PS)	65%	
CCTCGCTCAAAGACCA (sugars k3 d10 k3, PS)	50%	
CCTGAACATGACTGGG (sugars k3 d10 k3, PS)	38%	
CCTGAGACAAGTGCTA (sugars k3 d10 k3, PS)	43%	
CCTGAGAGTAAACTTG (sugars k3 d10 k3, PS)	18%	
CCTGAGTATTTCATAG (sugars k3 d10 k3, PS)	42%	
CCTGTCACCTGGCAAC (sugars k4 d8 k4, PS)	37%	
CCTGTGCAAAACCAGT (sugars k3 d10 k3, PS)		target mRNA inhibition (MM.1R, 1 µM): -10%
CCTTACCTCGCCCTGG (sugars k3 d10 k3, PS)		target mRNA inhibition (MM.1R, 1 µM): -31%
CCTTACCTGACAAGAA (sugars k3 d10 k3, PS)		target mRNA inhibition (MM.1R, 1 µM): -11%
CCTTAGGATAATATAC (sugars k3 d10 k3, PS)	23%	
CGAAAAGTCAAAATAC (sugars k3 d10 k3, PS)	0%	
